Data set [1] relates to mice. In words: acute toxicity (LD50) in mice. It counts as in vivo, mouse. The following applies: for relative toxicity compared with the 4-hydroxy compound (in words): 4β-esters compared with Compound No. 1246; for B - lethal dose (LD50) to mice, intraperitoneally / A - lethal dose (LD50) to mice, per os: mouse, Table 3; for B - lethal dose (LD50) to mice, intraperitoneally: intraperitoneal. The text has this:
(§1) In the Table 3 which follows are listed results of tests pertaining to the effectiveness of various compounds that are disclosed herein. The results are included in the several columns under letters whose significance is as follows:
(§2) A - lethal dose (LD50) to mice in milligrams per kilogram of body weight of the mouse when administered per os.
(§3) B - lethal dose (LD50) to mice in milligrams per kilogram of body weight of the mouse when administered intraperitoneally.
(§4) A. lethal dose (LD50) to mice in milligrams per kilogram body weight of the mouse when administered per os.
(§5) B. lethal dose (LD50) to mice in milligrams per kilogram body weight of the mouse administered intraperitoneally.
(§6) The values specified in Tables 4 and 5 hereinafter refer to milligrams per kilogram of body weight of the mouse.
(§7) Tests performed in accordance with the procedure described by Campbell and Richter in Acta Pharmacol. et Toxicol., vol. […] This is indicated by the results that are reported in Table 5 in which the headings A and F have the same significance as hereinbefore while the values in the column heading L pertain to the dose in milligrams per kilogram of body weight that was required to produce a lowering of the rectal temperature, which are values indicative of the depressant effect of a compound upon the central nervous system.

Data set [2] is described as follows: acute toxicity (LD50) in mice. It counts as in vivo, mouse. The following applies: mouse, in vivo, mouse.
Excerpt: as §1, §2, §3, §4, §5, §6, §7

Data set [3] relates to mouse. In words: sedative effect, comparison of esters with 4-hydroxy compounds. The conditions noted are these: for sedative effect or ataxia relative to the 4-hydroxy compound (in words): 4β-esters compared with Compound No. 1246; for sedative effect relative to the corresponding hydroxy compound (in words): compared with corresponding hydroxy compounds, Compound No. 1561. The format is in vivo. The text has this:
The effectiveness of the 2,9-dioxatricyclo[4.3.1.0^3,7 ]decanes of the present invention as narcotics is obviously sterospecifically related to the 4αconfiguration. Particularly surprising is the narcotic effect of the esters as compared to the 4-hydroxy compounds. Whereas nearly 300 or even 800 milligrams per kilogram of the 4-hydroxy compounds are required to induce narcosis, the required doses of the carbamates is only at most 100 milligrams per kilogram and their toxicity is in general very low.

Data set [4] concerns mouse. The experiment in a line: ataxia in mice. The format is in vivo. The following applies: mouse; for C - ataxia: dose required to produce ataxia in a mouse: Table 3.
Excerpt: as §1
C - ataxia: Dose in milligrams per kilogram of body weight required to produce ataxia in a mouse.

The test system of data set [5] is mouse. The experiment in a line: lowering of the rectal temperature in mice. It counts as in vivo. The following applies: mouse; Table 5; read-out: L dose required to produce a lowering of the rectal temperature.
Excerpt: as §6, §7

Data set [6] concerns white mice. The experiment in a line: ptosis test (Campbell and Richter screening). It counts as in vivo, mouse. The following applies: for dose producing ptosis relative to the 4-hydroxy compound (in words): compared with Compound No. 1561; for F ptosis test: mouse, Table 5.
Excerpt: (§8) The sedative and hypnotic effectiveness of the compounds of the invention were also ascertained by screening tests with white mice described by Campbell and Richter in Acta Pharmacol. et Toxicol. 25 (1967) page 345. In Table 4 the results of various specific screening tests are listed. These tests were as follows:
as §6, §7

For data set [7], the system named is mouse. In words: prolongation of narcosis produced by hexobarbital in mice. The following applies: for E - dose which prolongs narcosis produced by hexobarbital in a mouse by a factor of 4: factor of 4, Table 3. The format is in vivo. An excerpt:
(§9) In the Table 3 which follows are listed results of tests pertaining to the effectiveness of various compounds that are disclosed herein.

Data set [8] has as its system white mice. In words: balance bar test (Campbell and Richter screening). The following applies: mouse; Table 4; read-out: K. balance bar test (ED50). It counts as in vivo.
Excerpt: as §8
K. balance bar test (ED50).
as §6

Data set [9] relates to white mice. In words: climbing test (Campbell and Richter screening). The format is in vivo. The conditions noted are these: mouse; Table 4; read-out: J. climbing test (ED50).
Excerpt: as §8, §6

In data set [10] the test system is mice. The experiment in a line: narcosis (lateral position) in mice. The format is in vivo, mouse. The conditions noted are these: mouse.
Excerpt: as §9

[11] abbreviates: po, per os, Table 3, read-out: A - lethal dose (LD50) to mice, per os.
[12] abbreviates: po, per os, Table 5, read-out: A lethal dose (LD50) to mice, per os.
Where [13] appears, read: ip, intraperitoneal, Table 4, read-out: B. lethal dose (LD50) to mice, intraperitoneally.
Where [14] appears, read: po, per os, Table 4, read-out: A. lethal dose (LD50) to mice, per os.

Read-outs that look alike come from different tables or passages of the source.

Broadly, the LD50 is the dose at which mortality reaches 50%. As usually defined, the ED50 is the midpoint of the dose-response relation.

As for `CCC(=O)OC1CC2C(C)C3OC(OC)C2C1(C)O3` (stereo not shown) [compound 2044], in data set [1], the “relative toxicity compared with the 4-hydroxy compound (in words)” value (shortened to “relative toxicity”) is reported as “reduction in the relative toxicity” and the “B - lethal dose (LD50) to mice, intraperitoneally” value (from here on “B - lethal dose (LD50) to mice”) is 436 milligrams per kilogram of bod. Also, the LD50 in data set [2] (setting [11]) worked out at 1470 mg/kg. Further, the “sedative effect or ataxia relative to the 4-hydroxy compound (in words)” value in [3] is listed as “distinct increase in the sedative effect or ataxia”. For the same compound, the “C - ataxia: dose required to produce ataxia in a mouse” value (“C - ataxia: dose required” for short) in [4] is on record as 147 milligrams per kilogram of bod.
Take `CCC(=O)OC1CC2C(C)C3OC(OC)C2C1(C)O3` (stereo not shown) [compound 2081]: in data set [1], the “B - lethal dose (LD50) to mice” value is 1379 milligrams per kilogram of bod and the “A - lethal dose (LD50) to mice, per os” value is given as > 1470 milligrams per kilogram of bod. For the same compound, the LD50 in data set [2] (setting [12]) is over 1470 mg/kg. In addition, the “sedative effect relative to the corresponding hydroxy compound (in words)” value in [3] is on record as “greater sedative effect than the corresponding hydroxy compounds”. In addition, the “C - ataxia: dose required” value in data set [4] is 50 milligrams per kilogram of bod. Also, in [5], the minimal effective dose amounted to 100 mg/kg. For the same compound, in [6], the “dose producing ptosis relative to the 4-hydroxy compound (in words)” value is “one-fourth or one-half of the dose required of the 4-hydroxy-compound” and the F ptosis test is reported as 200 milligrams per kilogram of bod. In addition, the “E - dose which prolongs narcosis produced by hexobarbital in a mouse by a factor of 4” value (“E - dose which prolongs narcosis produced … of 4” below) in [7] is on record as 316 milligrams per kilogram of bod.
For `CCCCNC(=O)OC1CC2C(C)C3OC(OC)C2C1(C)O3` (stereo not shown) [compound 2327], the LD50 was determined as 432 mg/kg in [2] (setting [13]) and 690 mg/kg in [2] (setting [14]). Moreover, the ED50 is 18 mg/kg in [8] and 56 mg/kg in [9].
With `COC1OC2OC3(C)C(OC(=O)NC(C)C)CC(C2C)C13` (stereo not drawn) [Compound No. 2057, 4β-(N-Isopropylcarbamyloxy)-3,10-dimethyl-8-methoxy-2,9-dioxatricyclo[4.3.1.0^3,7]decane], in data set [1], the “relative toxicity” value is reported as “reduction in the relative toxicity”; the “B - lethal dose (LD50) to mice” value was 1000 milligrams per kilogram of bod; the “A - lethal dose (LD50) to mice, per os” value is given as > 1470 milligrams per kilogram of bod. Besides, the “sedative effect or ataxia relative to the 4-hydroxy compound (in words)” value in data set [3] is “distinct increase in the sedative effect or ataxia”. The “narcosis (in words)” value in [10] (comparison of epimers) is “produces neither a narcosis nor a prolongation of narcosis produced by hexobarbital”. In addition, in data set [4], the “dose required for producing ataxia” value is listed as 147 milligrams per kilogram of body weight and the “C - ataxia: dose required” value is 147 milligrams per kilogram of bod. For the same compound, the “prolongation of narcosis produced by hexobarbital (in words)” value in data set [7] (comparison of epimers) is on record as “produces neither a narcosis nor a prolongation of narcosis produced by hexobarbital”.
In the case of `CCNC(=O)OC1CC2C(C)C3OC(OC)C2C1(C)O3` (stereo not drawn) [Compound No. 2026, 4α-(N-Ethylcarbamyloxy)-8-methoxy-3,10-dimethyl-2,9-dioxatricyclo[4.3.1.0^3,7]decane], in [1], the “B - lethal dose (LD50) to mice” value is recorded as 297 milligrams per kilogram of bod and the “A - lethal dose (LD50) to mice, per os” value is listed as 518 milligrams per kilogram of bod. For the same compound, in data set [3], the “sedative effect relative to the corresponding hydroxy compound (in words)” value is on record as “greater sedative effect than the corresponding hydroxy compounds”. Moreover, in data set [10] (ip, 0.05 h, read-out: D - narcosis (lateral position): dose (ED50) which produces narcosis for 3 minutes in 50% of the mice, intraperitoneal, narcosis for 3 minutes, Table 3), the ED50 was 100 mg/kg. Besides, in data set [4], the “C - ataxia: dose required” value is 68.1 milligrams per kilogram of bod. Further, in data set [7], the “E - dose which prolongs narcosis produced … of 4” value is 31.6 milligrams per kilogram of bod.
`COC1OC2OC3(C)C(OC(C)=O)CC(C2C)C13` (stereo not drawn) [Compound No. 2080, 4α-Acetoxy-8-methoxy-3,10-dimethyl-2,9-dioxatricyclo[4.3.1.0^3,7]decane]: in data set [1], the “B - lethal dose (LD50) to mice” value is > 1000 milligrams per kilogram of bod and the “A - lethal dose (LD50) to mice, per os” value is reported as > 1470 milligrams per kilogram of bod. For the same compound, in data set [2] (setting [12]), the LD50 worked out at 1470 mg/kg. The “sedative effect relative to the corresponding hydroxy compound (in words)” value in [3] is “greater sedative effect than the corresponding hydroxy compounds”. In data set [4], the “C - ataxia: dose required” value was 50 milligrams per kilogram of bod. The minimal effective dose in data set [5] was found to be 400 mg/kg. In data set [6], the “dose producing ptosis relative to the 4-hydroxy compound (in words)” value was “one-fourth or one-half of the dose required of the 4-hydroxy-compound” and the F ptosis test was 100 milligrams per kilogram of bod.
For `COC1OC2OC3(C)C(OC(C)=O)CC(C2C)C13` (stereo not shown) [compound 2045], the “relative toxicity” value in [1] was “reduction in the relative toxicity”. Further, the LD50 stood at 1000 mg/kg in data set [2] (ip, intraperitoneal, Table 3, read-out: B - lethal dose (LD50) to mice, intraperitoneally) and 1470 mg/kg in data set [2] (setting [11]). For the same compound, in data set [3], the “sedative effect or ataxia relative to the 4-hydroxy compound (in words)” value is “distinct increase in the sedative effect or ataxia”. Moreover, the “C - ataxia: dose required” value in data set [4] is 200 milligrams per kilogram of bod. Also, in data set [7], the “E - dose which prolongs narcosis produced … of 4” value is 316 milligrams per kilogram of bod.
As to `CNC(=O)OC1CC2C(C)C3OC(OC)C2C1(C)O3` (stereo not shown) [compound 2500], the values for the LD50 in data set [2] (setting [13]) and in data set [2] (setting [14]) were 954 mg/kg and 1140 mg/kg, respectively. The figures for the ED50 in data set [8] and in data set [9] were 621 mg/kg and 250 mg/kg, respectively.
For `COC1OC2OC3(C)C(OC(=O)NC4CCCCC4)CC(C2C)C13` (stereo not drawn) [Compound No. 2365, 4α-(N-Cyclohexylcarbamyloxy)-8-methoxy-3,10-dimethyl-2,9-dioxatricyclo[4.3.1.0^3,7]decane], the LD50 was 832 mg/kg in [2] (setting [13]) and 1470 mg/kg in data set [2] (setting [14]). Besides, the ED50 was 137 mg/kg in data set [8] and 150 mg/kg in data set [9].
Regarding `C=CCNC(=O)OC1CC2C(C)C3OC(OC)C2C1(C)O3` (stereo not drawn) [Compound No. 2274, 4α-(N-Allylcarbamyloxy)-8-methoxy-3,10-dimethyl-2,9-dioxatricyclo[4.3.1.0^3,7]decane], the results for the LD50 in data set [2] (setting [13]) and in data set [2] (setting [14]) were 279 mg/kg and 339 mg/kg, respectively. The ED50 was determined as 62.5 mg/kg in data set [8] and 75 mg/kg in [9].
`COC1OC2OC3(C)C(OC(=O)NC(C)(C)C)CC(C2C)C13` (stereo not shown) [compound 2328]: the results for the LD50 in data set [2] (setting [13]) and in data set [2] (setting [14]) were 1130 mg/kg and 1470 mg/kg, respectively. Further, the results for the ED50 in [8] and in [9] were 56 mg/kg and 175 mg/kg, respectively.
`CCNC(=O)OC1CC2C(C)C3OC(OC)C2C1(C)O3` (stereo not shown) [compound 1767]: in data set [1], the “relative toxicity” value is “reduction in the relative toxicity”; the “B - lethal dose (LD50) to mice” value is listed as 890 milligrams per kilogram of bod; the “A - lethal dose (LD50) to mice, per os” value was > 1500 milligrams per kilogram of bod. Moreover, in data set [3], the “sedative effect or ataxia relative to the 4-hydroxy compound (in words)” value is on record as “distinct increase in the sedative effect or ataxia”. Besides, the “C - ataxia: dose required” value in data set [4] is on record as 400 milligrams per kilogram of bod.

Source of the values: patent US4016176A, “Esters of 4-hydroxy-2,9-dioxatricyclo[4.3.1.0^3,7 ] decanes and processes for their production” (Kali-Chemie Pharma GmbH, priority 1973, dated 1977).
